# Results: patent US6056941A, “Kit for the preparation of technetium TC 99m teboroxime myocardial perfusion agent” (priority 1999, dated 2000)
# Test: Clearance following intravenous administration in normal subjects (heart and liver)
# Type: in vivo, human
# Text: Table II approximates the effective clearance of Technetium Tc-99 m Teboroxime from the heart and liver.
compound,measurement,setting,value
"C[B-](ON=C1CCCCC1=N[O-])(ON=C1CCCCC1=NO)ON=C1CCCCC1=NO.[99Tc+3].[Cl-] [Technetium Tc-99 m Teboroxime, ^99m Tc (chlorine) (1,2-cyclohexanedione dioxime)3 methyl boron]",clearance from the circulation,,rapidly cleared from the circulation
same,time of peak heart uptake,heart,≤ 2 min
same,"effective clearance, Heart","heart, 5 min",2.3%
same,"effective clearance, Heart","heart, 10 min",1.7%
same,"effective clearance, Heart","heart, 15 min",1.5%
same,"effective clearance, Heart","heart, 20 min",1.3%
same,"effective clearance, Heart","heart, 1 hr",1.1%
same,"effective clearance, Heart","heart, 2 hr",0.8%
same,"effective clearance, Heart","heart, 4 hr",0.6%
same,"effective clearance, Liver",5 min,23%
same,"effective clearance, Liver",10 min,33%
same,"effective clearance, Liver",15 min,32%
same,"effective clearance, Liver",20 min,27%
same,"effective clearance, Liver",1 hr,24%
same,"effective clearance, Liver",2 hr,18%
same,"effective clearance, Liver",4 hr,17%
